Assay: gradient 5% acetonitrile 3 min, to 50% in 2 min, to 85% in 15 min, held 3 min, 100 µL/min
Settings: column: Zorbax Extend-C18 2.1 x 50 mm; eluents: water / acetonitrile, 0.1% formic acid
Summary of the method: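 A Zorbax Extend-C18 column (2.1 × 50 mm, 1.8 μm) run at 100 μL/min with water and acetonitrile, both containing 0.1% formic acid, separated mixtures of ~100 pure standards. The HPLC was coupled to a quadrupole time-of-flight mass spectrometer operated in positive and negative ionization mode, with dead and dwell volumes of 40 μL and 900 μL. Each retention time was taken from a computationally picked adduct peak that was then manually inspected.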

## COc1ccccc1-c1nc(Cn2nnc(-c3nc(-c4ccc(SC)cc4)no3)c2C)c(C)o1
  RP-LC retention time: 1180 s

## COc1ccc(-c2nc(CSc3nc4ccccc4n4c(C)nnc34)c(C)o2)cc1
  RP-LC retention time: 854 s

## COc1ccc(C)cc1NC(=O)c1nc(C)oc1C
  RP-LC retention time: 1020 s

## Nc1ccc(-c2nc3nc(N)nc(N)c3nc2-c2ccc(N)cc2)cc1
  RP-LC retention time: 596 s

## COc1ccc(C(=O)NC2CCN(C(=O)c3cc(-c4ccc(OC)cc4)n[nH]3)CC2)cc1
  RP-LC retention time: 729 s

## CCN1CCN(CCNC(=O)C2CCCN(c3ncc(-c4cccc(F)c4)cn3)C2)CC1 (stereo not drawn)
  RP-LC retention time: 632 s

## CC1CC(C)OP(=O)(OCCC#N)O1 (stereo not drawn)
  RP-LC retention time: 650 s

## O=C(NC1CCCCCCC1)C1CCN(C(=O)c2cc(-c3ccncc3)n[nH]2)CC1
  RP-LC retention time: 648 s

## Cc1noc(C)c1S(=O)(=O)N1CCC(c2noc(-c3ccncc3)n2)C1 (stereo not drawn)
  RP-LC retention time: 789 s

## CCCN1CCN(c2cc(C(=O)O)c3cc(NS(=O)(=O)c4ccc(CC)cc4)ccc3n2)CC1
  RP-LC retention time: 642 s

## COC(=O)C1=CN(c2cccc(C)c2)c2ccccc2S1(=O)=O
  RP-LC retention time: 849 s

## CCC(C(=O)NC(C)C)n1nc(C)c2nn(-c3ccccc3)c(C)c2c1=O (stereo not drawn)
  RP-LC retention time: 831 s

## CCSCCOC(=O)C1=C(C)NC2=C(C(=O)CCC2)C1c1cccc(OC)c1OC (stereo not drawn)
  RP-LC retention time: 861 s

## CC1Cc2ccccc2N1S(=O)(=O)c1cc2c3c(c1)CCC(=O)N3CCC2 (stereo not drawn)
  RP-LC retention time: 961 s

## Cc1ccc(C(=O)N2CCC3(CC2)N=C(c2cccc(Br)c2)NO3)cc1
  RP-LC retention time: 938 s

## Cc1ccc2ncc(C(=O)NCCCOC(C)C)c(=O)n2c1
  RP-LC retention time: 656 s

## Cn1cccc1CN(C(=O)C1CCC1)C1CC1
  RP-LC retention time: 796 s

## CC(C)c1nnc2ccc(N3CCOCC3)nn12
  RP-LC retention time: 645 s

## O=C(c1cccnc1)N1CC(n2cc(COCC3CC3)nn2)C1
  RP-LC retention time: 597 s

## Cc1ccc2nc(CNC(=O)C3CCN(S(=O)(=O)c4ccc5c(c4)sc(=O)n5C)CC3)[nH]c2c1
  RP-LC retention time: 636 s

## Cc1nc2sc(C)c(C)n2c(=O)c1NC(=O)c1ccc(Br)o1
  RP-LC retention time: 688 s

## Cc1cc(NS(=O)(=O)c2ccc(F)cc2C)n(C2CCS(=O)(=O)C2)n1 (stereo not drawn)
  RP-LC retention time: 753 s

## CCn1nc(CNC(=O)c2ccc(F)c(F)c2)c2ccccc21
  RP-LC retention time: 896 s

## CN(C)C(=O)c1ccc2c(c1)nnn2CCNC(=O)Nc1ccccc1
  RP-LC retention time: 626 s

## COc1ccc(N2CCN(C(=O)c3cn(-c4cc(N5CCCCC5)ncn4)cn3)CC2)cc1
  RP-LC retention time: 817 s

## Cc1nc2ccc3nc(NC(=O)C4CCN(S(C)(=O)=O)CC4)sc3c2s1
  RP-LC retention time: 709 s

## O=C(Cn1ccnc1-c1ccnc(N2CCCC2)c1)NCc1ccccc1Cl
  RP-LC retention time: 606 s

## Cc1cc(N2CCN(C(=O)Nc3ccc(F)c(Cl)c3)CC2)nc(N2CCCC2)n1
  RP-LC retention time: 701 s

## CCN(CC)S(=O)(=O)c1ccc2c(c1)CC(C(=O)NC1CCCCCCC1)N2C(C)=O (stereo not drawn)
  RP-LC retention time: 959 s

## O=C(CN1C(=O)NC(c2ccc(Cl)cc2)C2=C1COC2=O)Nc1ccc(Br)cc1F (stereo not drawn)
  RP-LC retention time: 877 s

## CCn1cnc2ccc(-c3noc(-c4ccc(OC)cc4C)n3)cc21
  RP-LC retention time: 741 s

## COc1ccc(C2(C(=O)N3CCC4(CC3)c3nccn3-c3ccccc3CN4C)CC2)cc1
  RP-LC retention time: 630 s

## O=C(NCc1ccc(F)cc1)C1CCCN(C(=O)C2Sc3ccccc3NC2=O)C1 (stereo not drawn)
  RP-LC retention time: 759 s

## CCOC(=O)c1nc(Nc2ccccc2OCC)c2c(CC)noc2n1
  RP-LC retention time: 1100 s

## O=C(NCc1ccc(F)cc1)c1ccc(-c2cccs2)nc1
  RP-LC retention time: 869 s

## Cc1cc(Cl)ccc1NC(=O)c1cc2c(=O)n(CC(C)C)ccc2n1C
  RP-LC retention time: 900 s

## CCc1cc(=O)n(CC(=O)Nc2ccc(OC)cc2)c(N2CCOCC2)n1
  RP-LC retention time: 699 s

## Cn1nc(C(=O)Nc2ccccc2)c2c1CCN(C(=O)Nc1ccccc1Br)C2
  RP-LC retention time: 903 s

## O=C(O)[C@@H]1CN(Cc2ccccc2)C[C@@H]1C(=O)N1CCc2ccccc21
  RP-LC retention time: 641 s

## O=C(COc1ccc(F)cc1)N1CC(n2cc(COCC3CC3)nn2)C1
  RP-LC retention time: 736 s

## Cc1ccc(CCNC(=O)c2ccc3c(c2)N(C)C(=O)C2CCCCN32)cc1 (stereo not drawn)
  RP-LC retention time: 947 s

## O=C(CCc1ccc2c(c1)CN(C(=O)C1CC1)CCO2)NC1CCS(=O)(=O)C1 (stereo not drawn)
  RP-LC retention time: 617 s

## COc1ccc(-c2cc(C(F)(F)F)n3ncc(C(=O)NCc4cn(C)nc4C)c3n2)cc1OC
  RP-LC retention time: 780 s

## CCOC(=O)C1CCN(CC(O)COC2CCCC2)CC1 (stereo not drawn)
  RP-LC retention time: 562 s

## COC(=O)c1c(NCc2ccc(C(F)(F)F)cc2)c2cc(F)ccc2[nH]c1=O
  RP-LC retention time: 840 s

## CCc1nc(-c2cccc(-c3noc(CNC(=O)Cc4ccccc4)n3)c2)cs1
  RP-LC retention time: 1000 s

## Cc1cc2[nH]c(C(=O)Nc3cc(F)c(F)cc3F)c(CN(C)C)c2s1
  RP-LC retention time: 664 s

## CC1CCN(S(=O)(=O)c2cc(-c3nnc(C4CCCC4)o3)co2)CC1
  RP-LC retention time: 1080 s

## Cc1nn(CC(=O)N2CCC(C)CC2)c(=O)c2nc(-c3ccccc3)sc12
  RP-LC retention time: 872 s

## Cc1cc(N2CCCCC2)n2nc(CN3CCC4(CC3)OCCO4)nc2n1
  RP-LC retention time: 580 s

## Cc1nn(Cc2ccc(C(=O)NC3CC3)cc2)c(C)c1S(=O)(=O)N1CCCCC1
  RP-LC retention time: 765 s

## O=C(Cc1ccsc1)N1CCn2c(nnc2-c2ccccc2)C1
  RP-LC retention time: 671 s

## Cc1nc(-c2cccc(-c3noc(-c4cncc(Br)c4)n3)c2)cs1
  RP-LC retention time: 1230 s

## O=C(c1ccc(Br)o1)N1CCC2(CC1)OCCS2
  RP-LC retention time: 771 s

## CC1CN(C(=O)N2CCC(C(=O)N3CCN(c4ccccn4)CC3)CC2)c2cc(Cl)ccc2O1 (stereo not drawn)
  RP-LC retention time: 672 s

## CCOc1ccc(S(=O)(=O)N2CCCC(C(=O)NCCOC)C2)cc1 (stereo not drawn)
  RP-LC retention time: 709 s

## Cc1ccc(CN2CCC(CNS(=O)(=O)c3ccc4c(c3)CCCC(=O)N4)CC2)cc1
  RP-LC retention time: 762 s

## CCOC(=O)c1nc(N2CCN(C3CCCCC3)CC2)c2ccccc2n1
  RP-LC retention time: 614 s

## COc1ccc(NC(=O)c2c(O)c3cccnc3n(-c3ccc(F)cc3)c2=O)cc1F
  RP-LC retention time: 1210 s

## COCCNC(=O)c1sc2c(cnc3cc4c(cc32)OCO4)c1-c1ccccc1
  RP-LC retention time: 732 s

## O=C(Nc1ccc2c(c1)OCCO2)N1CC[C@@H]2COC(=O)N(Cc3ccccc3)[C@@H]2C1
  RP-LC retention time: 724 s

## Cc1sc(NC(=O)c2ccncc2)nc1-c1ccc2c(c1)NC(=O)C(C)O2 (stereo not drawn)
  RP-LC retention time: 714 s

## CCOc1ccc(CC(=O)NC2CCN(c3cc(-c4ccc(Cl)cc4)[nH]n3)C2)cc1OCC (stereo not drawn)
  RP-LC retention time: 803 s

## O=C(CSc1nnc2scc(-c3ccc(Cl)cc3)n12)Nc1ccccc1F
  RP-LC retention time: 839 s

## COC(=O)c1ccc2c(=O)n(-c3ccc(OC)c(OC)c3)c(N3CCC(C)CC3)nc2c1
  RP-LC retention time: 1070 s

## Cc1ccccc1Cc1noc(-c2nc(-c3ccccc3F)no2)n1
  RP-LC retention time: 1180 s

## Cc1ccc(-c2nc(-n3c(C)c4c(C)nnc(C)c4c3C)sc2C)cc1C
  RP-LC retention time: 832 s

## CCOc1ccc(CNC(=O)c2cc(S(=O)(=O)N3CCCCC3)c(C)n2C)cc1
  RP-LC retention time: 1020 s

## Cc1cc(-n2c(C)nc3ccccc3c2=O)ccc1NC(=O)C(C)Oc1cccc(Cl)c1 (stereo not drawn)
  RP-LC retention time: 935 s

## O=C(c1ccccn1)N1CCC(n2c(C3CCCC3)nc3cccnc32)C1 (stereo not drawn)
  RP-LC retention time: 620 s

## CC(C)S(=O)(=O)NC[C@H](C)c1ccc(NC(=O)c2cc(F)cc(F)c2)cc1
  RP-LC retention time: 1050 s

## CCN1CCCn2cc(S(=O)(=O)NCCCc3ccccc3)cc2C1=O
  RP-LC retention time: 785 s

## O=c1c2cnn(-c3ccc(Br)cc3)c2ncn1Cc1nc(-c2ccc(F)cc2)no1
  RP-LC retention time: 1150 s

## CCc1ccc(N2C(=O)C3N=NN(Cc4nc(-c5cccc(Br)c5)no4)C3C2=O)cc1 (stereo not drawn)
  RP-LC retention time: 1120 s

## CCc1noc(-c2ccnc(-n3cnc(C(=O)NC4CCCCCC4)c3)c2)n1
  RP-LC retention time: 640 s

## COCc1c(C(=O)O)nnn1-c1cccc(C(F)(F)F)c1
  RP-LC retention time: 760 s

## CCc1ccc(S(=O)(=O)c2cnc(N3CCN(c4ccccc4)CC3)nc2N)cc1
  RP-LC retention time: 1140 s

## Cn1c(=O)c2cc(C(=O)Nc3ccccc3)cnc2n(-c2ccccc2)c1=O
  RP-LC retention time: 862 s

## CC(=O)Nc1onc(C)c1-c1ccc(C)c(S(=O)(=O)N2CCN(c3ncccn3)CC2)c1
  RP-LC retention time: 763 s

## Cc1ccc(-c2cc3c4nnc(CCC(=O)N5CCN(C6CCCCC6)CC5)n4ccn3n2)cc1C
  RP-LC retention time: 682 s

## COc1ccccc1C(=O)N1CCN(c2cnn3c(C4CC4)nnc3c2)CC1
  RP-LC retention time: 623 s

## Cc1noc(C)c1CN1CCN(C(=O)C(C)(C)Oc2ccc(Cl)cc2)CC1
  RP-LC retention time: 606 s

## O=C(Nc1ccsc1-c1nnc(C2CC2)o1)c1ccoc1
  RP-LC retention time: 1080 s

## O=C(NCc1ccccc1)Nc1c(-c2ccccc2)nc2ccccn12
  RP-LC retention time: 626 s

## Cc1cc2c(=O)n(CC(=O)Nc3cccc(C(C)C)c3)ccc2s1
  RP-LC retention time: 904 s

## CC(NC(=O)C1CCCN(c2nc3ccsc3c(=O)n2Cc2ccccc2)C1)c1ccc(F)cc1 (stereo not drawn)
  RP-LC retention time: 951 s

## Cc1ccc(NC(=O)CN2C(=O)CCCc3cc(S(=O)(=O)N4CCCC4)ccc32)cc1C
  RP-LC retention time: 824 s

## COc1cc(C(=O)Nc2noc3ncccc23)cc(OC)c1OC
  RP-LC retention time: 620 s
